Experimental data reported in ChEMBL document CHEMBL1649470 (Antimicrob Agents Chemother, 2009).
Active and inactive are the calls of the source. The rule behind the calls is not given here.

Key:
[1] = tested on: Influenza A virus; assay: Antiviral activity against Influenza A virus (A/duck/Laos/25/2006(H5N1)) infected in BALB/c mouse assessed as virus-induced change body weight at 20 mg/kg, po BID for 5 days measured on day 15 postinfection; type: functional
[2] = tested on: Influenza A virus; assay: Antiviral activity against Influenza A virus (A/duck/Laos/25/2006(H5N1)) infected in BALB/c mouse assessed as survival rate at 20 mg/kg, po BID for 5 days measured post last dose; type: functional; conditions: 120 h
[3] = tested on: Influenza A virus; assay: Antiviral activity against Influenza A virus (A/whooper swan/Mongolia/1/2009(H5N1)) infected in BALB/c mouse assessed as decrease in viral load in brain at 20 mg/kg, po BID for 5 days measured on day 3 postinfection; type: functional, organism-based; design: dose 20 mg/kg
[4] = tested on: Influenza A virus; assay: Antiviral activity against Influenza A virus (A/chicken/Yogjakarta/BBVet-IX/2004(H5N1)) infected in BALB/c mouse assessed as mean day to death at 20 mg/kg, po BID for 5 days measured post last dose; type: functional
[5] = tested on: Influenza A virus; assay: Antiviral activity against Influenza A virus (A/whooper swan/Mongolia/1/2009(H5N1)) infected in BALB/c mouse assessed as survival rate at 20 mg/kg, po BID for 5 days measured post last dose; type: functional; conditions: 120 h
[6] = tested on: Influenza A virus; assay: Antiviral activity against Influenza A virus (A/chicken/Yogjakarta/BBVet-IX/2004(H5N1)) infected in BALB/c mouse assessed as survival rate at 20 mg/kg, po BID for 5 days measured post last dose; type: functional; conditions: 120 h
[7] = tested on: Influenza A virus; assay: Antiviral activity against Influenza A virus (A/Thailand/1(KAN-1)/2004(H5N1)) infected in BALB/c mouse assessed as virus-induced change body weight at 20 mg/kg, po BID for 5 days measured on day 6 postinfection; type: functional
[8] = tested on: Influenza A virus; assay: Antiviral activity against Influenza A virus (A/whooper swan/Mongolia/1/2009(H5N1)) infected in BALB/c mouse assessed as mean day to death at 20 mg/kg, po BID for 5 days measured post last dose; type: functional
[9] = tested on: Influenza A virus; assay: Antiviral activity against Influenza A virus (A/Thailand/1(KAN-1)/2004(H5N1)) infected in BALB/c mouse assessed as decrease in viral load in brain at 20 mg/kg, po BID for 5 days measured on day 9 postinfection; type: functional, organism-based; design: dose 20 mg/kg
[10] = tested on: Influenza A virus; assay: Antiviral activity against Influenza A virus (A/Thailand/1(KAN-1)/2004(H5N1)) infected in BALB/c mouse assessed as virus-induced change body weight at 20 mg/kg, po BID for 5 days measured on day 15 postinfection; type: functional
[11] = tested on: Influenza A virus; conditions: dose 20 mg/kg; route oral
[12] = tested on: Influenza A virus; assay: Antiviral activity against Influenza A virus (A/Thailand/1(KAN-1)/2004(H5N1)) infected in BALB/c mouse assessed as decrease in viral load in lung at 20 mg/kg, po BID for 5 days measured on day 9 postinfection; type: functional, organism-based; design: dose 20 mg/kg
[13] = tested on: Influenza A virus; assay: Antiviral activity against Influenza A virus (A/Thailand/1(KAN-1)/2004(H5N1)) infected in BALB/c mouse assessed as virus-induced change body weight at 20 mg/kg, po BID for 5 days measured on day 9 postinfection; type: functional
[14] = tested on: Influenza A virus; assay: Antiviral activity against Influenza A virus (A/whooper swan/Mongolia/1/2009(H5N1)) infected in BALB/c mouse assessed as virus-induced change body weight at 20 mg/kg, po BID for 5 days measured on day 15 postinfection; type: functional
[15] = tested on: Influenza A virus; assay: Antiviral activity against Influenza A virus (A/whooper swan/Mongolia/1/2009(H5N1)) infected in BALB/c mouse assessed as decrease in viral load in brain at 20 mg/kg, po BID for 5 days measured on day 6 postinfection; type: functional, organism-based; design: dose 20 mg/kg
[16] = tested on: Influenza A virus; assay: Antiviral activity against Influenza A virus (A/duck/Laos/25/2006(H5N1)) infected in BALB/c mouse assessed as virus-induced change body weight at 20 mg/kg, po BID for 5 days measured on day 6 postinfection; type: functional
[17] = tested on: Influenza A virus; assay: Antiviral activity against Influenza A virus (A/Thailand/1(KAN-1)/2004(H5N1)) infected in BALB/c mouse assessed as mean day to death at 20 mg/kg, po BID for 5 days measured post last dose; type: functional
[18] = tested on: Influenza A virus; assay: Antiviral activity against Influenza A virus (A/chicken/Yogjakarta/BBVet-IX/2004(H5N1)) infected in BALB/c mouse assessed as virus-induced change body weight at 20 mg/kg, po BID for 5 days measured on day 6 postinfection; type: functional
[19] = tested on: Influenza A virus; assay: Antiviral activity against Influenza A virus (A/chicken/Yogjakarta/BBVet-IX/2004(H5N1)) infected in BALB/c mouse assessed as decrease in viral load in lung at 20 mg/kg, po BID for 5 days measured on day 9 postinfection; type: functional, organism-based; design: dose 20 mg/kg
[20] = tested on: Influenza A virus; assay: Antiviral activity against Influenza A virus (A/duck/Laos/25/2006(H5N1)) infected in BALB/c mouse assessed as decrease in viral load in lung at 20 mg/kg, po BID for 5 days measured on day 3 postinfection; type: functional, organism-based; design: dose 20 mg/kg
[21] = tested on: Influenza A virus; assay: Antiviral activity against Influenza A virus (A/whooper swan/Mongolia/1/2009(H5N1)) infected in BALB/c mouse assessed as decrease in viral load in lung at 20 mg/kg, po BID for 5 days measured on day 9 postinfection; type: functional, organism-based; design: dose 20 mg/kg
[22] = tested on: Influenza A virus; assay: Antiviral activity against Influenza A virus (A/chicken/Yogjakarta/BBVet-IX/2004(H5N1)) infected in BALB/c mouse assessed as virus-induced change body weight at 20 mg/kg, po BID for 5 days measured on day 9 postinfection; type: functional
[23] = tested on: Influenza A virus; assay: Antiviral activity against Influenza A virus (A/chicken/Yogjakarta/BBVet-IX/2004(H5N1)) infected in BALB/c mouse assessed as virus-induced change body weight at 20 mg/kg, po BID for 5 days measured on day 15 postinfection; type: functional
[24] = tested on: Influenza A virus; assay: Antiviral activity against Influenza A virus (A/duck/Laos/25/2006(H5N1)) infected in BALB/c mouse assessed as decrease in viral load in brain at 20 mg/kg, po BID for 5 days measured on day 9 postinfection; type: functional, organism-based; design: dose 20 mg/kg
[25] = tested on: Influenza A virus; assay: Antiviral activity against Influenza A virus (A/Thailand/1(KAN-1)/2004(H5N1)) infected in BALB/c mouse assessed as decrease in viral load in lung at 20 mg/kg, po BID for 5 days measured on day 6 postinfection; type: functional, organism-based; design: dose 20 mg/kg
[26] = tested on: Influenza A virus; assay: Antiviral activity against Influenza A virus (A/Thailand/1(KAN-1)/2004(H5N1)) infected in BALB/c mouse assessed as survival rate at 20 mg/kg, po BID for 5 days measured post last dose; type: functional; conditions: 120 h
[27] = tested on: Influenza A virus; assay: Antiviral activity against Influenza A virus (A/chicken/Yogjakarta/BBVet-IX/2004(H5N1)) infected in BALB/c mouse assessed as decrease in viral load in brain at 20 mg/kg, po BID for 5 days measured on day 9 postinfection; type: functional, organism-based; design: dose 20 mg/kg
[28] = tested on: Influenza A virus; assay: Antiviral activity against Influenza A virus (A/whooper swan/Mongolia/1/2009(H5N1)) infected in BALB/c mouse assessed as decrease in viral load in brain at 20 mg/kg, po BID for 5 days measured on day 9 postinfection; type: functional, organism-based; design: dose 20 mg/kg
[29] = tested on: Influenza A virus; assay: Antiviral activity against Influenza A virus (A/whooper swan/Mongolia/1/2009(H5N1)) infected in BALB/c mouse assessed as virus-induced change body weight at 20 mg/kg, po BID for 5 days measured on day 9 postinfection; type: functional
[30] = tested on: Influenza A virus; assay: Antiviral activity against Influenza A virus (A/duck/Laos/25/2006(H5N1)) infected in BALB/c mouse assessed as virus-induced change body weight at 20 mg/kg, po BID for 5 days measured on day 9 postinfection; type: functional
[31] = tested on: Influenza A virus; conditions: 120 h, route oral
[32] = tested on: Influenza A virus; assay: Antiviral activity against Influenza A virus (A/duck/Laos/25/2006(H5N1)) infected in BALB/c mouse assessed as mean day to death at 20 mg/kg, po BID for 5 days measured post last dose; type: functional
[33] = tested on: Influenza A virus; conditions: dose 20 mg/kg; route oral; remark: listed apart in the source
[34] = tested on: Influenza A virus; assay: Antiviral activity against Influenza A virus (A/whooper swan/Mongolia/1/2009(H5N1)) infected in BALB/c mouse assessed as virus-induced change body weight at 20 mg/kg, po BID for 5 days measured on day 6 postinfection; type: functional

In the case of `CCOC(=O)C1=C[C@@H](OC(CC)CC)[C@H](NC(C)=O)[C@@H](N)C1` [OSELTAMIVIR], the Activity [1] is reported as -7.6%, the survival at 20 mg/kg [2] is reported as 60% and the Activity [3] is reported as “inactive”. It also gave a Time [4] greater than 21 days, a survival at 20 mg/kg [5] of 70% and a survival at 20 mg/kg [6] of 100%. For the same molecule, the Activity [7] was -10.7%, the Time [8] was 9.7 days and the Activity [9] was “inactive”. The Activity [10] was -2.1%, the Time [11] was 8 days and the Activity [12] was “Active”. For the same molecule, the Activity [13] was -17.6%, the Activity [14] was -10.6% and the Activity [15] was “inactive”. The Activity [16] was -0.2%, the Time [17] was 10 days and the Activity [18] was -22%. The Activity [19] was “Active”, the inhibition [20] was “Active” and the Activity [21] was “Active”. The Activity [22] was -11.2%, the Activity [23] was 1.2% and the Activity [24] was “Active”. For the same molecule, the Activity [25] was “Active”, the survival at 20 mg/kg [26] was 80% and the Activity [27] was “Active”. The Activity [28] was “inactive”, the Activity [29] was -18.2% and the Activity [30] was -20.3%. For the same molecule, the survival at 20 mg/kg [31] was 0%, the Time [32] was 13.5 days and the Activity [33] was -24.4%. The Activity [34] was -7%.
